Target: T1, P-gp (Homo sapiens, UniProt P08183)
T1 construct: expressed in transfected cells; host or cells: MDA-435/LCC6 MDR cells, with MDA-435/LCC6 WT as the P-gp-negative comparison
Experiment: FACS accumulation/efflux in MDA-435/LCC6 MDR cells compared with WT cells
Type: cell-based
Description: Before tests were initiated, P-gp expression in both MDR and WT cells was confirmed by Western blot, which confirmed the expression of P-gp in the MDR cells and the lack of expression in WT cells. The protein band in the MDR cells was visible around the molecular weight of P-gp, 170 kDa, which correlates to the reported molecular weight of the protein.
No differences in P-gp function were observed. […] Statistics represent the significance differences in WT/MDR accumulation ratio at a p-value of <0.01.

T1 sequence (P08183 whole entry): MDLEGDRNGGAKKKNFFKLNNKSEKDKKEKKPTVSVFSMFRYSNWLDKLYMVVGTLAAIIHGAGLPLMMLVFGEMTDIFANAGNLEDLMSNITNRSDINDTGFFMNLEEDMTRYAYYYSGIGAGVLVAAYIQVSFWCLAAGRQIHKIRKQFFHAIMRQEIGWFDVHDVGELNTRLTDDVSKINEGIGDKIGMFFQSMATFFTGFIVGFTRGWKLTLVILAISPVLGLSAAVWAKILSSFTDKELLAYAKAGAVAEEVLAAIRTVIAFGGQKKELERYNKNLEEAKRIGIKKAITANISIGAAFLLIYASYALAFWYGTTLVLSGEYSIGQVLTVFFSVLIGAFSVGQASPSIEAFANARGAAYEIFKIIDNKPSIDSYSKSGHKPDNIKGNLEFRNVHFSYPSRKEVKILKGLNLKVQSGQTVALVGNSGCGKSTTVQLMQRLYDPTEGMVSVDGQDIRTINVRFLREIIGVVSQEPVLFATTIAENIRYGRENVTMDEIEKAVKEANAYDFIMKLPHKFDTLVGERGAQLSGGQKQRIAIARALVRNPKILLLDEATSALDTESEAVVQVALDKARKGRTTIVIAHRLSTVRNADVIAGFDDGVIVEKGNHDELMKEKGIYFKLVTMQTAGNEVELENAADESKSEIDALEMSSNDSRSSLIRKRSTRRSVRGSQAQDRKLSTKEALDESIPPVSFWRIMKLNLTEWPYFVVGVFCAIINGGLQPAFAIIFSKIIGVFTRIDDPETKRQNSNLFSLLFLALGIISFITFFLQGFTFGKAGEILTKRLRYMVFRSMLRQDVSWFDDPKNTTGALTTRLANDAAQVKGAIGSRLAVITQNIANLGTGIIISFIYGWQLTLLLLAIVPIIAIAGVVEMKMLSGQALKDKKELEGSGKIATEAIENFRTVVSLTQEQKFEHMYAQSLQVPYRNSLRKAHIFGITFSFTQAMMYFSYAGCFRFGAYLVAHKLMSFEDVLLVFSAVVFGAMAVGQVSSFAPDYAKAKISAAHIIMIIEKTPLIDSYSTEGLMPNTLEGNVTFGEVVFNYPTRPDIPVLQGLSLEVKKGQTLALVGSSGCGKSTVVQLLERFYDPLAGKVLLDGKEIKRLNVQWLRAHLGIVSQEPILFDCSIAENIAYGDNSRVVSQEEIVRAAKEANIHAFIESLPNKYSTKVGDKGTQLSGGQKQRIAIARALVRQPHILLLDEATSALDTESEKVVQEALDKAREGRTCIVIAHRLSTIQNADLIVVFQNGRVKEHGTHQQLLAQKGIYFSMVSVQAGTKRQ

Rhodamine 123 [free Rho123]
accumulation in MDR cells at 4° C. (4° C. relative to 37° C.): increase
WT to MDR accumulation ratio with verapamil (5, 25, 50, 75 and 100 μM verapamil, mode fluorescence): increase in accumulation ratio with increasing verapamil concentration

Reference: US20160279263A1, “DRUG DELIVERY COMPOSITIONS AND METHODS TARGETING P-GLYCOPROTEIN” (CORNELL UNIVERSITY, priority 2012, published 2016)
